From PubChem BioAssay AID248 (DTP/NCI, 2004)
Toxic doses and inconclusive results are not listed. Cut-off read from the data, not from the text of the source: active = T/C of 150% or more; inactive = T/C below 125%.

System: L1210 leukemia ip in BDF1 mice, survival T/C
Assay: NCI In Vivo Anticancer Drug Screen. Data for tumor model L1210 Leukemia (intraperitoneal) in B6D2F1 (BDF1) mice
Conditions: endpoint: mean survival time, higher = longer survival
Method in brief: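 Read-out is survival time, reported as the treated-group measurement over the vehicle-control measurement.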

[1] = dose: 100.0 mg/kg/injection, schedule: Q04DX002 (ip), vehicle: other
[2] = dose: 200.0 mg/kg/injection, schedule: Q04DX002 (ip), vehicle: other
[3] = dose: 100.0 mg/kg/injection, schedule: Q04DX003 (ip), vehicle: Klucel (hydroxypropylcellulose) (HPC)
[4] = dose: 200.0 mg/kg/injection, schedule: Q04DX003 (ip), vehicle: Klucel (hydroxypropylcellulose) (HPC)
[5] = dose: 100.0 mg/kg/injection, schedule: Q04DX003 (ip), vehicle: saline with Tween-80
[6] = dose: 200.0 mg/kg/injection, schedule: Q04DX003 (ip), vehicle: saline with Tween-80
[7] = dose: 400.0 mg/kg/injection, schedule: Q04DX003 (ip), vehicle: saline with Tween-80
[8] = dose: 100.0 mg/kg/injection, schedule: Q01DX009 (ip), vehicle: saline with Tween-80
[9] = dose: 200.0 mg/kg/injection, schedule: Q01DX009 (ip), vehicle: saline with Tween-80
[10] = dose: 100.0 mg/kg/injection, schedule: Q01DX001 (ip), vehicle: saline
[11] = dose: 200.0 mg/kg/injection, schedule: Q01DX001 (ip), vehicle: saline
[12] = dose: 400.0 mg/kg/injection, schedule: Q01DX001 (ip), vehicle: saline

Measured: T/C

CC[CH2][Pb]([CH2]CC)([CH2]CC)[O]C(=O)C1CCCCC1
inactive: dose: 1.5 mg/kg/injection, schedule: Q01DX009 (ip), vehicle: saline with Tween-80 100 % of control | dose: 1.5 mg/kg/injection, schedule: Q04DX003 (ip), vehicle: saline with Tween-80 106 % of control | dose: 3.0 mg/kg/injection, schedule: Q01DX009 (ip), vehicle: saline with Tween-80 100 % of control | dose: 3.0 mg/kg/injection, schedule: Q04DX003 (ip), vehicle: saline with Tween-80 116 % of control | dose: 6.0 mg/kg/injection, schedule: Q01DX009 (ip), vehicle: saline with Tween-80 104 % of control | dose: 6.0 mg/kg/injection, schedule: Q04DX003 (ip), vehicle: saline with Tween-80 104 % of control

O=C1/C(=C/c2ccc3c(c2)OCO3)C2CCC(N2)/C1=C\c1ccc2c(c1)OCO2
inactive: dose: 100.0 mg/kg/injection, schedule: Q01DX001 (ip), vehicle: other 89 % of control | dose: 400.0 mg/kg/injection, schedule: Q01DX001 (ip), vehicle: other 101 % of control

O=c1cc(NCc2ccc(Cl)cc2)[nH]c(=O)[nH]1
inactive: dose: 100.0 mg/kg/injection, schedule: Q01DX001 (ip), vehicle: saline with Tween-80 108 % of control | dose: 200.0 mg/kg/injection, schedule: Q01DX001 (ip), vehicle: saline with Tween-80 95 % of control | dose: 400.0 mg/kg/injection, schedule: Q01DX001 (ip), vehicle: saline with Tween-80 98 % of control

CCCCCCCCCCCCCCCCCCOc1ccc(Cl)cc1Cl
inactive: [1] 98 % of control | [2] 102 % of control | dose: 400.0 mg/kg/injection, schedule: Q04DX002 (ip), vehicle: other 102 % of control

CCN(CC)CCC(=O)OC(c1ccccc1)C1(O)CCSC1 (stereo not given)
inactive: [3] 106 % of control | [4] 96 % of control

N#Cc1[nH]cnc1N1CC[N+](CCCl)=N1
inactive: dose: 100.0 mg/kg/injection, schedule: Q01DX009 (ip), vehicle: saline 104 % of control | dose: 200.0 mg/kg/injection, schedule: Q01DX009 (ip), vehicle: saline 103 % of control | dose: 400.0 mg/kg/injection, schedule: Q01DX009 (ip), vehicle: saline 95 % of control

BrC(Br)c1ccc(C(Br)Br)cc1
inactive: [5] 94 % of control | [6] 100 % of control | [7] 94 % of control

O=C1NC(=S)S/C1=C\c1ccc(Cl)c(Cl)c1
inactive: [8] 97 % of control | [9] 95 % of control

CCC(C)(C)c1ccc(Oc2ccccc2)c(N)c1
inactive: dose: 100.0 mg/kg/injection, schedule: Q01DX009 (ip), vehicle: other 88 % of control | [5] 104 % of control | dose: 200.0 mg/kg/injection, schedule: Q01DX009 (ip), vehicle: other 100 % of control | [6] 100 % of control | [7] 98 % of control

CC(=O)C1=C(C)NC(C)=C(C(C)=O)C1C
inactive: dose: 55.0 mg/kg/injection, schedule: Q01DX Z (ip), vehicle: saline 97 % of control | dose: 83.0 mg/kg/injection, schedule: Q01DX Z (ip), vehicle: saline 95 % of control | dose: 125.0 mg/kg/injection, schedule: Q01DX Z (ip), vehicle: saline 100 % of control

COC(=O)/C=C(/Oc1cccc([N+](=O)[O-])c1)C(=O)OC
inactive: dose: 75.0 mg/kg/injection, schedule: Q04DX003 (ip), vehicle: saline 105 % of control | dose: 150.0 mg/kg/injection, schedule: Q04DX003 (ip), vehicle: saline 96 % of control | dose: 300.0 mg/kg/injection, schedule: Q04DX003 (ip), vehicle: saline 98 % of control

COc1ccc(OC(=O)Nc2ccccc2OC)cc1
inactive: dose: 100.0 mg/kg/injection, schedule: Q01DX009 (ip), vehicle: Klucel (hydroxypropylcellulose) (HPC) 97 % of control | [3] 98 % of control | dose: 200.0 mg/kg/injection, schedule: Q01DX009 (ip), vehicle: Klucel (hydroxypropylcellulose) (HPC) 100 % of control | [4] 96 % of control | dose: 400.0 mg/kg/injection, schedule: Q01DX009 (ip), vehicle: Klucel (hydroxypropylcellulose) (HPC) 95 % of control | dose: 400.0 mg/kg/injection, schedule: Q04DX003 (ip), vehicle: Klucel (hydroxypropylcellulose) (HPC) 95 % of control

CCOC1OC(C(O)CO)C(O)C1O (stereo not given)
inactive: [5] 98 % of control | [6] 98 % of control | [7] 96 % of control

c1nc2c(o1)CCCC2
inactive: dose: 50.0 mg/kg/injection, schedule: Q04DX002 (ip), vehicle: carboxymethylcellulose (CMC) 98 % of control | dose: 50.0 mg/kg/injection, schedule: Q04DX002 (ip), vehicle: other 97 % of control | dose: 100.0 mg/kg/injection, schedule: Q04DX002 (ip), vehicle: carboxymethylcellulose (CMC) 98 % of control | [1] 100 % of control | dose: 200.0 mg/kg/injection, schedule: Q04DX002 (ip), vehicle: carboxymethylcellulose (CMC) 95 % of control | [2] 93 % of control

C(=N\Nc1ccccc1)/c1cc2c3c(c1)CCCN3CCC2
inactive: dose: 100.0 mg/kg/injection, schedule: Q01DX009 (ip), vehicle: gum acacia 94 % of control | dose: 200.0 mg/kg/injection, schedule: Q01DX009 (ip), vehicle: gum acacia 91 % of control | dose: 400.0 mg/kg/injection, schedule: Q01DX009 (ip), vehicle: gum acacia 94 % of control

O=CC1CC2CCC1C2 (stereo not given)
inactive: [10] 116 % of control | [11] 91 % of control | [12] 96 % of control

CNC(C)(C)C(SS)c1ccc(Cl)cc1 (stereo not given)
inactive: dose: 25.0 mg/kg/injection, schedule: Q01DX009 (ip), vehicle: saline with Tween-80 92 % of control | dose: 25.0 mg/kg/injection, schedule: Q04DX003 (ip), vehicle: saline with Tween-80 102 % of control | dose: 50.0 mg/kg/injection, schedule: Q01DX009 (ip), vehicle: saline with Tween-80 98 % of control | dose: 50.0 mg/kg/injection, schedule: Q04DX003 (ip), vehicle: saline with Tween-80 96 % of control | dose: 75.0 mg/kg/injection, schedule: Q01DX009 (ip), vehicle: saline with Tween-80 94 % of control | [5] 98 % of control

CC(CCc1ccc(O)cc1)OC=O (stereo not given)
inactive: dose: 222.0 mg/kg/injection, schedule: Q01DX Z (ip), vehicle: saline 104 % of control | dose: 333.0 mg/kg/injection, schedule: Q01DX Z (ip), vehicle: saline 91 % of control

CCCCOc1cc([N+](=O)[O-])ccc1CO
inactive: [8] 109 % of control | [9] 98 % of control | dose: 400.0 mg/kg/injection, schedule: Q01DX009 (ip), vehicle: saline with Tween-80 98 % of control

CC(Cc1ccccc1)NN (stereo not given)
inactive: dose: 3.9 mg/kg/injection, schedule: Q01DX009 (ip), vehicle: saline 93 % of control | dose: 7.81 mg/kg/injection, schedule: Q01DX009 (ip), vehicle: saline 96 % of control | dose: 15.62 mg/kg/injection, schedule: Q01DX009 (ip), vehicle: saline 93 % of control | dose: 15.62 mg/kg/injection, schedule: Q04DX003 (ip), vehicle: saline 107 % of control | dose: 31.25 mg/kg/injection, schedule: Q04DX003 (ip), vehicle: saline 98 % of control | dose: 62.5 mg/kg/injection, schedule: Q04DX003 (ip), vehicle: saline 104 % of control

CCCCc1cnc(NCCCC(N)C(=O)O)nc1 (stereo not given)
inactive: dose: 25.0 mg/kg/injection, schedule: Q04DX002 (ip), vehicle: saline 100 % of control | dose: 50.0 mg/kg/injection, schedule: Q04DX002 (ip), vehicle: saline 95 % of control | dose: 100.0 mg/kg/injection, schedule: Q04DX002 (ip), vehicle: saline 92 % of control

Cc1csc[n+]1CCS(=O)(=O)[O-]
inactive: [10] 95 % of control | [11] 97 % of control | [12] 97 % of control

CC(=O)OCC1OC(Oc2ncc(C)c(=O)[nH]2)C(Nc2ccc([N+](=O)[O-])cc2[N+](=O)[O-])C(OC(C)=O)C1OC(C)=O (stereo not given)
inactive: dose: 50.0 mg/kg/injection, schedule: Q01DX001 (ip), vehicle: carboxymethylcellulose (CMC) 100 % of control | dose: 100.0 mg/kg/injection, schedule: Q01DX001 (ip), vehicle: carboxymethylcellulose (CMC) 97 % of control | dose: 200.0 mg/kg/injection, schedule: Q01DX001 (ip), vehicle: carboxymethylcellulose (CMC) 103 % of control | dose: 400.0 mg/kg/injection, schedule: Q01DX001 (ip), vehicle: carboxymethylcellulose (CMC) 92 % of control

Cc1ccc[n+](CC(=O)CCc2ccc(C(=O)C[n+]3cccc(C)c3)cc2)c1
inactive: dose: 0.07 mg/kg/injection, schedule: Q04DX003 (ip), vehicle: saline 94 % of control | dose: 0.14 mg/kg/injection, schedule: Q04DX003 (ip), vehicle: saline 101 % of control
